Patent US20230348459A1, “PYRROLIDINE COMPOUND AND USE THEREOF” (SIMCERE PHARMACEUTICAL CO., LTD., priority 2020, published 2023)

Tests used:
[1] = Plasma protein binding rate, equilibrium dialysis, human plasma; type: in vitro ADME; conditions: pH 7.4, 6 hours dialysis
Procedure: The protein binding rate of the compounds of the present invention in the plasma of five species (human, monkey, dog, rat and mouse) was determined by the following test method.
• 1. Human plasma (BioIVT), beagle dog plasma (BioIVT), SD rat plasma (BioIVT), CD-1 mouse plasma (BioIVT); • 2. 96-well equilibrium dialysis plate (HTDialysis LLC, Gales Ferry, CT, HTD96B), equilibrium dialysis membrane (MWCO 12-14 K, #1101); • 3. Positive control compound warfarin; • 4. ABI QTrap 5500 liquid chromatography-mass spectrometry.
1. Preparation of a buffer with a concentration of 100 mM sodium phosphate and 150 mM NaCl: an alkaline solution with a concentration of 14.2 g/L Na2HPO4 and 8.77 g/L NaCl was prepared with ultrapure water, and an acidic solution with a concentration of 12.0 g/L NaH2PO4 and 8.77 g/L NaCl was prepared with ultrapure water. The alkaline solution was titrated with the acidic solution to pH 7.4 to prepare a buffer with a concentration of 100 mM sodium phosphate and 150 mM NaCl.
2. Preparation of dialysis membrane: the dialysis membrane was soaked in ultrapure water for 60 minutes to separate the membrane into two pieces, then soaked in 20% ethanol for 20 minutes, and finally soaked in the buffer used for dialysis for 20 minutes.
3. Preparation of plasma: the frozen plasma was quickly thawed at room temperature, then the plasma was centrifuged at 3,220 g at 4° C. for 10 min to remove clots, and the supernatant was collected into a new centrifuge tube. The pH of the plasma was measured and recorded, and the plasma with pH of 7-8 was used.
3. Preparation of compound-containing plasma samples: 10 mM stock solution of compounds of the present invention or positive control compounds were diluted with DMSO to obtain 200 µM working solution. […]
The peak areas of the compounds on the buffer side and the plasma side were determined. […]
All the data was calculated by the Microsoft Excel software. The plasma protein binding rate values of the compounds of the present invention were calculated.

[2] = target: CYP2D6 (Homo sapiens (Human), UniProt P10635); test: Inhibition of CYP2D6 enzymatic activity in human liver microsomes; type: in vitro ADME; conditions: substrate dextromethorphan
Procedure: The inhibition of CYP2C9 and CYP2D6 enzymatic activities by the compounds of the present invention was determined by the following test method.
• 1. Human liver microsomes (Corning 452117) • 2. NADPH (Solarbio 705Y021) • 3. Positive substrates diclofenac (Sigma SLBV3438), dextromethorphan (TRC 3-EDO-175-1) and midazolam (Cerilliant FE01161704) • 4. Positive inhibitors sulfaphenazole (D. Ehrenstorfer GmbH 109012), quinidine (TCI WEODL-RE) and ketoconazole (Sigma 100M1091V) • 5. AB Sciex Triple Quad 5500 liquid chromatography-mass spectrometry
1. Preparation of 100 mM phosphate buffered saline (PBS): 7.098 g of Na2HPO4 was weighed, 500 mL of pure water was added and subjected to ultrasonic dissolution to obtain solution A. 3.400 g of KH2PO4 was weighed, 250 mL of pure water was added and subjected to ultrasonic dissolution to obtain solution B. Solution A was placed on a stirrer and solution B was slowly added until pH reaches 7.4 to prepare 100 mM PBS buffer.
2. Preparation of 10 mM NADPH solution with 100 mM PBS buffer. 10 mM stock solution of compounds of the invention was diluted with DMSO to obtain a 200× concentration of compound working solution (6000, 2000, 600, 200, 60, 20, 0 µM). The stock solution of positive inhibitors was diluted with DMSO to obtain a 200× concentration of positive inhibitor working solution (sulfaphenazole, 1000, 300, 100, 30, 10, 3, 0 µM; quinidine/ketoconazole, 100, 30, 10, 3, 1, 0.3, 0 µM). A 200 × concentration of substrate working solution (120 µM of diclofenac, 400 µM of dextromethorphan, and 200 µM of midazolam) was prepared in water, acetonitrile, or acetonitrile/methanol.
3. 2 µl of 20 mg/ml liver microsome solution, 1 µl of substrate working solution, 1 µl of compound working solution and 176 µl of PBS buffer were taken, mixed uniformly, and pre-incubated in a 37° C. water bath for 15 minutes. […]
The IC50 values of the compounds of the present invention against CYP2C9 and CYP2D6 were calculated by Excel XLfit 5.3.1.3.

Chain of CYP2D6 (P10635 whole entry): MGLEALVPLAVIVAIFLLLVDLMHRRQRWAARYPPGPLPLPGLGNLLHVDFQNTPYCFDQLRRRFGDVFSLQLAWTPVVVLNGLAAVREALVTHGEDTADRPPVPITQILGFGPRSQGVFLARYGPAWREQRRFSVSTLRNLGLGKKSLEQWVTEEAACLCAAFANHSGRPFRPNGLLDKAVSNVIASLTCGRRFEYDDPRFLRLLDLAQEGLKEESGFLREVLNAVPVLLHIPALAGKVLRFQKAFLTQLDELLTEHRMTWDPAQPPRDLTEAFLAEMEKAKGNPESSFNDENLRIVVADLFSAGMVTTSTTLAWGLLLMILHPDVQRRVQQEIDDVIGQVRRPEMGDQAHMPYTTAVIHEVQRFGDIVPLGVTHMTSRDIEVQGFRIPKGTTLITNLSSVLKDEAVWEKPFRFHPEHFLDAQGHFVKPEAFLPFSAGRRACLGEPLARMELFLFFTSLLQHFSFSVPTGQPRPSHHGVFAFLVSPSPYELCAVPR

Row | Compound | fraction unbound at 6 h, 1 µM [1] | IC50 [2] [µM]
1 | C[C@@H]1Cc2c([nH]c3ccccc23)C(c2c(F)cc(N[C@H]3CCN(CCCF)C3)cc2F)N1CC(F)(F)F (stereo in doubt) [Example 4, (S)-N-(3,5-difluoro-4-((1S,3R)-3-methyl-2-(2,2,2-trifluoroethyl)-2,3,4,9-tetrahydro-1H-pyridino[3,4-b]indol-1-yl)phenyl)-1-(3-fluoropropyl)pyrrolidin-3-amine] | 0.002 | 27
2 | C[C@@H]1Cc2c([nH]c3ccccc23)C(c2c(F)cc(N[C@H]3CCN(CCCF)C3)cc2F)N1CC(F)(F)CO (stereo in doubt) [Example 7, 3-((1S,3R)-1-(2,6-difluoro-4-(((S)-1-(3-fluoropropyl)pyrrolidin-3-yl)amino)phenyl)-3-methyl-3,4-dihydro-1H-pyridino [3,4-b]indole-2(9H)-yl)-2,2-difluoropropane-1-ol] | 0.005 | 23
3 | C[C@@H]1Cc2c([nH]c3ccccc23)[C@@H](c2ccc(N[C@H]3CCN(CCCF)C3)cn2)N1CC(F)(F)F [Example 3, N-((S)-1-(3-fluoropropyl)pyrrolidin-3-yl)-6-((1S,3R)-3-methyl-2-(2,2,2-trifluoroethyl)-2,3,4,9-tetrahydro-1H-pyridino[3,4-b]indol-1-yl)pyridine-3-amine] | 0.012 | > 30
